Test results taken from patent US20120070392A1, “COMPOSITION FOR INHIBITING ERYTHEMA CAUSED BY ULTRAVIOLET RADIATION CONTAINING A DIPEPTIDE AS ACTIVE INGREDIENT” (priority 2009, published 2012).

system: PGE2 production; assay: Inhibition of UVB-induced PGE2 production in cultured human keratinocytes (PGE2 assay kit, calibrated with MTT absorbance); format: cell-based; conditions: not given
Protocol: Human keratinocytes were seeded at a density of 1×10^5 cells/well to 6-well plates containing 2 mL of KGM(keratinocyte growth medium, Clonetics, San Diego, Calif., USA) per well and cultured overnight. Then, the medium was replaced with KBM(keratinocyte basal medium) supplemented with 0.1% BSA(bovine serum albumin) and the cells were cultured for an additional 24 hours. Subsequently, the cells were pre-treated for an additional 24 hours with 2 mL of the same medium containing 10 μg/ml of each of the dipeptides listed in Table 1. […] The pre-treated medium was transferred to new 24 well plates and 1 mL of DPBS(Dulbecco's phosphate buffered saline) was added to the cells in each well. During UV irradiation, the transferred medium was stored in a cell incubator. […] At this time, the control was covered with aluminum foil. After the removal of DPBS, the transferred medium was returned to each well. The cells were further cultured for 24 hours, after which 1 mL of the medium was transferred to microcentrifuge tubes. […] The supernatants were then removed and the formazan crystals were solubilized in 1 ml of DMSO(dimethylsulfoxide). One hundred μL of the solution was transferred to each well of 96-well plates and an optical density was determined at 540 nm using an ELISA(enzyme-linked immunosorbent assay) reader. […] The concentration of PGE2 was determined using a PGE2 Assay Kit(KGE004, R&D Systems, Inc., Minneapolis, Minn., USA) according to the manufacturer's instruction. […] After removal of the reaction, the wells were washed five times with 400 μL of wash buffer. To each well was added 200 μL of a substrate solution, followed by incubation for 20 30 min. The reaction was terminated with 50 μL of a stop solution per well before determining absorbance at 450 nm on an ELISA reader. The PGE2 concentration of each sample was calculated from the standard graph and calibrated with the absorbance obtained in the MTT assay to determine their inhibitory activity against PGE2 production.

Row | Compound | % Inhibition against PGE2 Production [%]
1 | aspartic acid-histidine [DH] | 59.2
2 | aspartic acid-proline [DP] | 89.3
3 | valine-valine [VV] | 89.9
4 | histidine-lysine [HK] | 43.8
5 | valine-histidine [VH] | 47.6
6 | valine-asparagine [VN] | 31.3
7 | serine-asparagine [SN] | 49.9
8 | lysine-methionine [KM] | 84.0
9 | alanine-proline [AP] | 26.3
10 | proline-isoleucine [PI] | 87.2
11 | serine-valine [SV] | 31.2
12 | NCC(=O)O.NCCCC[C@H](N)C(=O)O [GK, glycine-lysine] | 87.0
13 | proline-tryptophan [PW] | 85.5
14 | proline-phenylalanine [PF] | 32.8
15 | asparagine-valine [NV] | 80.4
16 | tryptophan-proline [WP] | 68.3
17 | glycine-glycine [GG] | 26.1
18 | isoleucine-tyrosine [IY] | 68.6
19 | histidine-proline [HP] | 26.3
20 | leucine-histidine [LH] | 81.7
21 | isoleucine-methionine [IM] | 57.1
22 | proline-aspartic acid [PD] | 84.3
23 | proline-histidine [PH] | 74.7

same assay, conditions: 10 μg/ml dipeptide, 24 h pre-treatment, human keratinocytes, UVB 100 mJ/cm^2, medium assayed 24 h after irradiation; 0% or lower expressed as zero; 10% or more regarded as effective

Row | Compound | % Inhibition against PGE2 Production [%]
24 | phenylalanine-alanine [FA] | 48.8
25 | leucine-alanine | 47.2
26 | proline-alanine [PA] | 76.8
27 | phenylalanine-histidine [FH] | 39.2
28 | phenylalanine-phenylalanine [FF] | 70.5

same assay, conditions: 10 μg/ml dipeptide, 24 h pre-treatment, human keratinocytes, UVB 100 mJ/cm^2, medium assayed 24 h after irradiation; […]; 10% or more regarded as effective

Row | Compound | % Inhibition against PGE2 Production [%]
29 | phenylalanine-asparagine [FN] | 81.4
30 | glutamic acid-glutamine [EQ] | 79.6
31 | serine-lysine [SK] | 44.9
32 | aspartic acid-threonine [DT] | 95.8
33 | glutamine-aspartic acid [QD] | 66.0
34 | isoleucine-glutamine [IQ] | 72.0
35 | lysine-valine [KV] | 71.6
36 | tryptophan-asparagine [WN] | 33.1
37 | aspartic acid-aspartic acid [DD] | 64.2
38 | glutamine-threonine [QT] | 25.0
39 | valine-aspartic acid [VD] | 45.3
40 | tryptophan-glutamine [WQ] | 88.7
41 | glutamic acid-leucine [EL] | 56.2
42 | alanine-phenylalanine [AF] | 84.2
43 | leucine-cysteine [LC] | 33.3
44 | serine-serine [SS] | 93.8
45 | cysteine-tryptophan [CW] | 71.0
46 | tryptophan-tryptophan [WW] | 34.8
47 | tryptophan-valine [WV] | 79.6
48 | asparagine-glutamic acid | 14.5
49 | threonine-glutamine [TQ] | 51.2
50 | threonine-arginine [TR] | 53.0
51 | tryptophan-arginine [WR] | 83.7
52 | aspartic acid-cysteine [DC] | 77.6
53 | threonine-tryptophan [TW] | 54.8
54 | asparagine-leucine [NL] | 72.6
55 | glutamic acid-isoleucine [EI] | 74.0
56 | aspartic acid-lysine [DK] | 76.6
